Our source for the EC50 values is US11110082B2, “Tyrosine kinase inhibitors” (Rigel Pharmaceuticals, Inc., priority 2016, dated 2021).

The assay deals with T1, MerTK (Homo sapiens, UniProt Q12866).
T1 construct: Seed HUVECs (10K cells/well) in EBM-2 complete media; host or cells: HUVEC (primary human umbilical vein endothelial cells)
T1 sequence (Q12866 21-999): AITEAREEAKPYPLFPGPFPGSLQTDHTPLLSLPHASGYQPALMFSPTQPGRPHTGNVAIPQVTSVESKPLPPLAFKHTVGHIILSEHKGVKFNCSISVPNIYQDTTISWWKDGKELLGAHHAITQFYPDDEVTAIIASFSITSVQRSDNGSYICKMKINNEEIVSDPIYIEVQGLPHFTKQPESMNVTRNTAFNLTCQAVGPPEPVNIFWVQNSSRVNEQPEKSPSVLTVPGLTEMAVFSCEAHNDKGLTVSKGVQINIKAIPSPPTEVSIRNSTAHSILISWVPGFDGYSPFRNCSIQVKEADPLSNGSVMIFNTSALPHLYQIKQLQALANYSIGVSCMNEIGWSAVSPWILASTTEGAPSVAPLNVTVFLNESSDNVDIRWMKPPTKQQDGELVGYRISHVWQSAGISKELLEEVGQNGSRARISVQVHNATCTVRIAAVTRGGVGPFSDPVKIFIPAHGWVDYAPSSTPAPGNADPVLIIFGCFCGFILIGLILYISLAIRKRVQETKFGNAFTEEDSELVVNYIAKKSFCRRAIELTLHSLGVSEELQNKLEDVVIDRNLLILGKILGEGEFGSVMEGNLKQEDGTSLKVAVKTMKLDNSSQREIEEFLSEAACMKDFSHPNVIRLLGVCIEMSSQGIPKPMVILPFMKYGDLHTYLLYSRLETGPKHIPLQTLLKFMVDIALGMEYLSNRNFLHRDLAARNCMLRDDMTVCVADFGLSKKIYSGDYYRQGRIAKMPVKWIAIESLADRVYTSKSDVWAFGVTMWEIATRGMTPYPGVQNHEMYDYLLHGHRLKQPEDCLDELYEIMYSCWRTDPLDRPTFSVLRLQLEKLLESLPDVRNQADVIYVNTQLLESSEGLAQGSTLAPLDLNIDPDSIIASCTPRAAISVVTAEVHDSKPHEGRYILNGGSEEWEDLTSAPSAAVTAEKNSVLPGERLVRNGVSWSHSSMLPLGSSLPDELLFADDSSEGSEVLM
The experiment in a line: PAKT HTRF-HUVEC assay (pAkt Ser473 HTRF after anti-human MerTK-XL stimulation). It counts as cell-based. The following applies: HUVEC cells, 1 hour compound, stimulated with anti-human MerTK-XL 1 ug/mL for 10 minutes, read-out: inhibition of MerTK. The method in brief: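 HUVECs starved 3-4 h in basal medium, preincubated with compound 1 h at 37° C, then stimulated 10 min with cross-linked anti-human MerTK antibody (final 1 ug/mL). Lysates read for pAkt (Ser473) by HTRF; EC50 from curve fitting.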
On the technique in general: In TR-FRET formats the signal depends on donor and acceptor labels being close together.

Turning to `CN1CCN(c2ccc3c(c2)c(=O)n([C@H]2CC[C@H](O)CC2)c2nc(NCC4CC4)ncc32)CC1` [Compound 87, trans-3-((Cyclopropylmethyl)amino)-5-(4-hydroxycyclohexyl)-8-(4-methylpiperazin-1-yl)pyrimido[4,5-c]isoquinolin-6(5H)-one], the EC50 was 115 nM.
With `CCCCNc1ncc2c3ccc(N4CCN(C)CC4)cc3c(=O)n(C3CC4(CC(O)C4)C3)c2n1` (centres unmarked) [Compound 88, 3-(Butylamino)-5-(6-hydroxyspiro[3.3]heptan-2-yl)-8-(4-methylpiperazin-1-yl)pyrimido[4,5-c]isoquinolin-6(5H)-one], the EC50 is 51 nM.
The same measure for `CCCCNc1ncc2c3ccc(N4CCN(C)CC4)cc3c(=O)n([C@H]3CC[C@@](C)(O)CC3)c2n1` [Compound 89, cis-3-(Butylamino)-5-(4-hydroxy-4-methylcyclohexyl)-8-(4-methylpiperazin-1-yl)pyrimido[4,5-c]isoquinolin-6(5H)-one]: 152 nM; for `CCCCNc1ncc2c3ccc(N4CCN(C)[C@H](C)C4)cc3c(=O)n([C@H]3CC[C@H](O)CC3)c2n1` [Compound 90, trans-3-(Butylamino)-8-((R)-3,4-dimethylpiperazin-1-yl)-5-(4-hydroxycyclohexyl)pyrimido [4,5-c]isoquinolin-6(5H)-one]: 13.1 nM.
The same measure for `CCC1(CNc2ncc3c4ccc(N5CCN(C)CC5)cc4c(=O)n([C@H]4CC[C@H](O)CC4)c3n2)CCC1` [Compound 91, trans-3-(((1-Ethylcyclobutyl)methyl)amino)-5-(4-hydroxycyclohexyl)-8-(4-methylpiperazin-1-yl)pyrimido[4,5-c]isoquinolin-6(5H)-one]: 3910 nM; for `CN1CCN(c2ccc3c(c2)c(=O)n([C@H]2CC[C@H](O)CC2)c2nc(NCC4CCC4)ncc32)CC1` [Compound 92, trans-3-((Cyclobutylmethyl)amino)-5-(4-hydroxycyclohexyl)-8-(4-methylpiperazin-1-yl)pyrimido[4,5-c]isoquinolin-6(5H)-one]: 38.8 nM.
The same measure for `CCC(F)(F)CNc1ncc2c3ccc(N4CCN(C)CC4)cc3c(=O)n([C@H]3CC[C@H](O)CC3)c2n1` [Compound 93, trans-3-((2,2-Difluorobutyl)amino)-5-(4-hydroxycyclohexyl)-8-(4-methylpiperazin-1-yl)pyrimido[4,5-c]isoquinolin-6(5H)-one]: 358 nM.
On to `CCC1(CNc2ncc3c4ccc(N5CCN(C)CC5)cc4c(=O)n([C@H]4CC[C@H](O)CC4)c3n2)CC1` [Compound 94, trans-3-(((1-Ethylcyclopropyl)methyl)amino)-5-(4-hydroxycyclohexyl)-8-(4-methylpiperazin-1-yl)pyrimido[4,5-c]isoquinolin-6(5H)-one], for which the EC50 was 1100 nM.
The same measure for `CN1CCN(c2ccc3c(c2)c(=O)n([C@H]2CC[C@H](O)CC2)c2nc(NCCCC(F)(F)F)ncc32)CC1` [Compound 95, trans-5-(4-Hydroxycyclohexyl)-8-(4-methylpiperazin-1-yl)-3-((4,4,4-trifluorobutyl)amino)pyrimido [4,5-c]isoquinolin-6(5H)-one]: 3920 nM; for `CN1CCN(c2ccc3c(c2)c(=O)n([C@H]2CC[C@H](O)CC2)c2nc(NCCC4CC4)ncc32)CC1` [Compound 96, trans-3-((2-Cyclopropylethyl)amino)-5-(4-hydroxycyclohexyl)-8-(4-methylpiperazin-1-yl)pyrimido[4,5-c]isoquinolin-6(5H)-one]: 41.4 nM; for `CN1CCN(c2ccc3c(c2)c(=O)n(C2CCC(C)(O)CC2)c2nc(NCC4CC4)ncc32)CC1` (stereo not drawn) [Compound 97, trans-3-((Cyclopropylmethyl)amino)-5-(4-hydroxy-4-methylcyclohexyl)-8-(4-methylpiperazin-1-yl)pyrimido[4,5-c]isoquinolin-6(5H)-one]: 69.1 nM.
As to `CN1CCN(c2ccc3c(c2)c(=O)n([C@H]2CC[C@](C)(O)CC2)c2nc(NCCC4CC4)ncc32)CC1` [Compound 98, trans-3-((2-Cyclopropylethyl)amino)-5-(4-hydroxy-4-methylcyclohexyl)-8-(4-methylpiperazin-1-yl)pyrimido[4,5-c]isoquinolin-6(5H)-one], the EC50 was 35.7 nM.
The result for `O=c1c2cc(N3CCC(N4CCCC4)CC3)ccc2c2cnc(NCC3CC3)nc2n1[C@H]1CC[C@H](O)CC1` [Compound 99, trans-3-((Cyclopropylmethyl)amino)-5-(4-hydroxycyclohexyl)-8-(4-(pyrrolidin-1-yl)piperidin-1-yl)pyrimido[4,5-c]isoquinolin-6(5H)-one] reads 94.8 nM; that for `O=c1c2cc(N3CCn4ncnc4C3)ccc2c2cnc(NCC3CC3)nc2n1[C@H]1CC[C@H](O)CC1` [Compound 101, trans-3-((Cyclopropylmethyl)amino)-8-(5,6-dihydro-[1,2,4]triazolo[1,5-a]pyrazin-7(8H)-yl)-5-(4-hydroxycyclohexyl)pyrimido [4,5-c]isoquinolin-6(5H)-one], 296 nM; that for `O=c1c2cc(N3CCN4CCC[C@H]4C3)ccc2c2cnc(NCC3CC3)nc2n1[C@H]1CC[C@H](O)CC1` [Compound 102, trans-3-((Cyclopropylmethyl)amino)-8-((S)-hexahydropyrrolo[1,2-a]pyrazin-2(1H)-yl)-5-(4-hydroxycyclohexyl)pyrimido [4,5-c]isoquinolin-6(5H)-one], 123 nM.
The result for `O=c1c2cc(N3CCN4CCC[C@@H]4C3)ccc2c2cnc(NCC3CC3)nc2n1[C@H]1CC[C@H](O)CC1` [Compound 103, trans-3-((Cyclopropylmethyl)amino)-8-((R)-hexahydropyrrolo[1,2-a]pyrazin-2(1H)-yl)-5-(4-hydroxycyclohexyl)pyrimido [4,5-c]isoquinolin-6(5H)-one] reads 129 nM; that for `O=c1c2cc(N3CCN(CC(F)(F)F)CC3)ccc2c2cnc(NCC3CC3)nc2n1[C@H]1CC[C@H](O)CC1` [Compound 104, trans-3-((Cyclopropylmethyl)amino)-5-(4-hydroxycyclohexyl)-8-(4-(2,2,2-trifluoroethyl)piperazin-1-yl)pyrimido[4,5-c]isoquinolin-6(5H)-one], 289 nM; that for `O=c1c2cc(N3CCN(CC(F)F)CC3)ccc2c2cnc(NCC3CC3)nc2n1[C@H]1CC[C@H](O)CC1` [Compound 105, trans-3-((Cyclopropylmethyl)amino)-8-(4-(2,2-difluoroethyl)piperazin-1-yl)-5-(4-hydroxycyclohexyl)pyrimido [4,5-c]isoquinolin-6(5H)-one], 354 nM.
The result for `C[C@@H]1CN(c2ccc3c(c2)c(=O)n([C@H]2CC[C@H](O)CC2)c2nc(NCC4CC4)ncc32)CCN1C` [Compound 106, trans-3-((Cyclopropylmethyl)amino)-8-((R)-3,4-dimethylpiperazin-1-yl)-5-(4-hydroxycyclohexyl)pyrimido [4,5-c]isoquinolin-6(5H)-one] reads 70.4 nM.
Consider `C[C@@H]1CN(c2ccc3c(c2)c(=O)n([C@H]2CC[C@H](O)CC2)c2nc(NCC4CC4)ncc32)[C@@H](C)CN1C` [Compound 107, trans-3-((Cyclopropylmethyl)amino)-5-(4-hydroxycyclohexyl)-8-((2S,5R)-2,4,5-trimethylpiperazin-1-yl)pyrimido[4,5-c]isoquinolin-6(5H)-one], for which the EC50 is 58.2 nM.
As to `O=c1c2cc(N3CCNCC3)ccc2c2cnc(NCC3CC3)nc2n1[C@H]1CC[C@H](O)CC1` [Compound 108, trans-3-((Cyclopropylmethyl)amino)-5-(4-hydroxycyclohexyl)-8-(piperazin-1-yl)pyrimido[4,5-c]isoquinolin-6(5H)-one], the EC50 turned out to be 170 nM.
Regarding `CC(C)N1CCN(c2ccc3c(c2)c(=O)n([C@H]2CC[C@H](O)CC2)c2nc(NCC4CC4)ncc32)CC1` [Compound 109, trans-3-((Cyclopropylmethyl)amino)-5-(4-hydroxycyclohexyl)-8-(4-isopropylpiperazin-1-yl)pyrimido[4,5-c]isoquinolin-6(5H)-one], the EC50 was found to be 97.5 nM.
The result for `O=c1c2cc(N3CCN(C4CC4)CC3)ccc2c2cnc(NCC3CC3)nc2n1[C@H]1CC[C@H](O)CC1` [Compound 110, trans-3-((Cyclopropylmethyl)amino)-8-(4-cyclopropylpiperazin-1-yl)-5-(4-hydroxycyclohexyl)pyrimido [4,5-c]isoquinolin-6(5H)-one] reads 483 nM.
